This passage reports melting point results from a melting point compilation (Tetko et al.; mined from patent text by program, amines drawn as free bases though some values may be those of a salt).

`COc1c(F)ccc2c(C3CCN(C(=O)OC(C)(C)C)CC3)noc12`: the melting point fell in the range of 94 to 96 °C.

On to `COc1cc2c(Nc3ccc(C)c(OC(C)=O)c3)ncnc2cc1OCc1cccnc1`, for which the melting point lay in the range of 113 to 115 °C.

As to `COc1cc(C)c2cc(C(=O)c3ccc(C(=O)O)cc3)ccc2c1C`, the melting point came to 240 °C. In turn, `Cc1c(Br)cccc1NCc1cc(C(C)(C)C)sc1C(=O)O` displayed a melting point of 150 to 152 °C. Compound `Clc1ccc(-c2nc(Sc3cccs3)[nH]c2-c2ccc(Cl)cc2)cc1` returned a melting point of 219 °C. Compound `CCCc1nccn1-c1ncnc2nc[nH]c12` showed a melting point of 242 to 244 °C.

The compound `Cn1nc(Sc2ccc(C(=O)OCC(C)(C)C)c(Cl)c2)n(C)c1=O` gave a melting point of 101 °C.

As to `CCc1nc2c(C)cc(C)nc2n1Cc1ccc(C2(C(=O)O)CCOCC2)s1`, the melting point was 214 to 215 °C. With `CCc1cccc(C)c1CNc1nc(C(=O)O)cn2c(C)c(C)nc12` the figure was 230 °C; with `CCCCCCCCCCCCCCCCCCN(C)c1ccc(N)cc1C(=O)O`, 81 to 83 °C. As for `CC(=O)NC(C#N)NC(=O)c1cc(Cl)cc(Cl)c1` (centres undefined), the figure is 227 to 228 °C; as for `CC(C)(C)O[C@@H]1C[C@@H](COCc2ccccc2)N(S(=O)(=O)c2ccc3ccccc3c2)C1`, 101 to 103 °C. Compound `O=C(O)c1cccc(CN2CCC(c3cn(Cc4ccoc4)c4ncccc34)CC2)c1` displayed a melting point of 177 to 179 °C. With `COC(=O)c1cc(C(=O)OC)cc(-c2ccc(C=O)cc2)c1`, the melting point lay within 166 to 169 °C. As for `CC(=O)n1cc(C2C(=O)CC(C)(C)CC2=O)c2ccccc21`, the figure is 225 to 227 °C; as for `CC1(C)CN=C(NN=C(C=Cc2ccc(OC(F)(F)F)cc2)C=Cc2ccc(OC(F)(F)F)cc2)NC1`, 170 to 172 °C. As for `Cc1ccc(Oc2cncc3sc(C(N)=O)cc23)cc1`, the figure is 196 to 197 °C; as for `CN(Cc1cc2c(=O)c(C(=O)NCc3ccc(Cl)cc3)cn(C)c2o1)CC(O)c1cccs1` (centres undefined), 145 to 147 °C. The compound `O=C1C=CC(OC2CCCC2)N1` (centres undefined) yielded a melting point of 81 to 82 °C.

As for `CN(C)C(C)(C)C(N)=O`, the melting point was 109 to 111 °C. `CCC12CCC3C4CCC(=O)C=C4CCC3C1CCC2OC(=O)CCC1CCCC1` (centres undefined) registered a melting point of 88 to 89 °C. With `Cc1cc(O)c(S(=O)(=O)CC(C)C)c(=O)o1` the figure was 90 to 91 °C; with `COC1=C(OC)C(=O)C2=C(CC(CCCCCCCCN3CCN(Cc4ccccc4)CC3)C2)C1=O`, 80 to 81 °C; with `CC(C)(C)CCP1C(O)C(O)P(CCC(C)(C)C)C(O)C1O` (centres undefined), 186 to 210 °C. The compound `O=S(=O)(CCCCCOc1ccc(C2=C(c3ccccc3)CCCc3cc(OC4CCCCO4)ccc32)cc1)CCCC(F)(F)C(F)(F)F` (centres undefined) returned a melting point of 107 to 110 °C.

The compound `CCCc1nn(-c2ccc(C(F)(F)F)cn2)cc1CCCOc1ccc(CC(=O)O)c(OC)c1` displayed a melting point of 135 to 136 °C.

The compound `CCOC(=O)c1cnc(SC)nc1NC(C)C` yielded a melting point of 159 to 160 °C. With `O=C(N[C@@H](Cc1ccc(Cl)cc1)C(=O)N1CCC(O)CC1)c1cc2cc(Cl)ccc2[nH]1` the figure was 227 to 229 °C. With `c1ccc(Oc2ccc(-c3nc(-c4ccccc4)c(-c4ccccc4)o3)cc2)cc1`, the melting point lay in the range of 125 to 126 °C. Compound `CCCCCC1OCc2cc(C(=O)O)ccc2O1` (centres undefined) registered a melting point of 148 °C.

Turning to `S=c1[nH]ccn1Cc1ccco1`, the melting point lay in the range of 106 to 108 °C. With `CC(=O)Nc1ncc(Sc2nnc(C)s2)s1` the figure was 242 to 244 °C; with `CCCNC(=O)CN1C(=O)C2(COc3cc4c(cc32)CCO4)c2ccccc21` (centres undefined), 207 to 209 °C; with `COc1ccccc1NS(=O)(=O)c1ccc([N+](=O)[O-])cc1[N+](=O)[O-]`, 172 to 173 °C. With `N#Cc1ccc(NS(=O)(=O)c2ccc([N+](=O)[O-])cc2[N+](=O)[O-])cc1` the figure was 186 to 187 °C. Compound `CCCCCCCCCCCCCCCCCCNP1OCC2(CO1)COP(NCCCCCCCCCCCCCCCCCC)OC2` (centres undefined) returned a melting point of 67 to 70 °C. `COc1cc(C(=O)CCCC2CCCCC2)c(OC)cc1Cl` showed a melting point of 80 to 81 °C. With `O=C(O)CC(Sc1ccc(Cl)cc1)c1ccccc1` (centres undefined) the figure was 90 to 92 °C. With `O=[N+]([O-])C1=C2N(Cc3ccc(Cl)nc3)CCCN2C2CCC1O2` (centres undefined) the figure was 143 to 145 °C; with `CC(O)[C@@H](Cc1ccccc1)NC(=O)OC(C)(C)C` (some centres undefined), 127 °C. Compound `CCCCCCCNC(=O)N(C)c1cccc(-c2ccc(CCC(=O)O)cc2)n1` came in with a melting point of 108 °C. `C=C1CC2C(CCC3(C)C2CCC3(OC(C)=O)C(C)=O)C2(C)CCC(=O)C=C12` (centres undefined) registered a melting point of 234 to 236 °C. With `COc1ccccc1Oc1c(NS(=O)(=O)c2ccc(C)cn2)nc(-c2cccc(O)c2)nc1OC` the figure was 211 to 216 °C; with `O=C(Nc1ccccc1O)C(=O)Nc1ccccc1O`, > 250 °C; with `Cc1ccc(-c2cccc(/C=C/C(=O)Nc3ccc(CO)cc3)c2)cc1`, 220 to 223 °C. In the case of `OCc1ccccc1CBr`, the melting point lay within 61 to 63 °C. As for `CC(C)Cn1c(CO)c(-c2ccc(F)cc2)c2cc(OCc3ccccc3)ccc2c1=O`, the figure is 143 to 144 °C; as for `O=C(Cc1noc2ccccc12)NS(=O)(=O)c1ccccc1`, 171 to 172 °C; as for `COC(=O)c1cc(C(=O)OC)c2c(Cl)cc(Cl)cc2n1`, 116 to 118 °C. The compound `COc1ccc2cc(C(=O)[C@H](C)Br)ccc2c1` displayed a melting point of 90 to 91 °C. The compound `N#Cc1cc(Cl)c(Cl)c(-c2ccc(Cl)cc2)n1` displayed a melting point of 142 to 145 °C. As for `CNc1cc(-c2ccc(Cl)cc2)nc2nn(C)cc12`, the figure is 182 to 184 °C; as for `NC(=NO)c1cc2cc(F)c(F)cc2o1`, 184 °C. As for `CNC(=O)c1ccccc1Nc1nc(Nc2cc3c(cc2OC)NC(=O)CCC3(C)C)ncc1Cl`, the figure is 197 to 199 °C. With `COc1cc2c(cc1OC)CN(c1nc(Cl)nc3cc(OC)c(OC)cc13)CC2` the figure was 183 to 186 °C; with `CCCc1nc2c(N)nc3cccnc3c2n1C1(OC)CCCCC1`, 187 to 188 °C; with `COC(=O)c1cccc(-c2cccnc2)c1`, 125 to 126 °C. For the compound `COC(=O)c1ccc(C(=O)Nc2cc3c4c(c2)CCCC4CCC3)cc1`, the melting point lay in the range of 217 to 218 °C. In the case of `CCOC(=O)C(=O)CC(=O)C=Cc1ccc(O)c(OC)c1`, the melting point lay in the range of 97 to 98 °C. Consider `COC(=O)Cc1cnc(-c2ccccc2)n1Cc1ccccc1`, for which the melting point fell in the range of 78 to 79 °C.

Regarding `COC(=O)c1cc(O)c(N=Nc2ccccc2)c(O)c1`, the melting point lay in the range of 216 to 218 °C. As for `Cc1ccc(S(=O)(=O)c2ccc3c(c2)CCCC3)cc1`, the figure is 130 to 132 °C; as for `CC(=O)SCC1(CSC(C)=O)C(=O)N2CCCC(C(=O)OC(C)(C)C)N2C1=O` (centres undefined), 85 to 86 °C.

For `C[Si](C)(C)O[Si]1(O[Si](C)(C)C)O[Si](O[Si](C)(C)C)(O[Si](C)(C)C)O[Si](O[Si](C)(C)C)(O[Si](C)(C)C)O1`, the melting point is 103 °C. For `Clc1cnc2c(C(Cl)Cl)c(Cl)ccc2c1`, the melting point was 154 °C. As for `CCCc1cc2cc(O)c(Cl)c(Cl)c2s1`, the figure is 50 to 51 °C; as for `COC(OC)C(=O)CC(C)(C)C(Cc1c(C)c(Br)cn1S(=O)(=O)c1ccc(C)cc1)[N+](=O)[O-]` (centres undefined), 114 to 115 °C; as for `COC(=O)c1sc(C)c2[nH]c(C(F)(F)C(F)(F)F)nc12`, 156 to 157 °C. As for `CS(=O)(=O)c1c(Cl)ccc(C(=O)O)c1Cl`, the figure is 158 °C; as for `CS(=O)(=O)c1ccc(-c2cc(=O)n(C3CCCCC3)nc2-c2ccc(F)cc2)cc1`, 86 to 90 °C; as for `CS(=O)(=O)c1ccc(C2CC(=O)C(C(=O)c3ccc(Cl)cc3[N+](=O)[O-])C(=O)N2)cc1` (centres undefined), 296 to 299 °C. `COC(=O)CCCc1cc2cc(Cl)ccc2n1S(=O)(=O)c1ccc(N2CCOCC2)nc1`: the melting point is 130 to 132 °C.

Compound `CCOC(=O)c1cccc(-c2nc(=O)c3ccccc3s2)n1` registered a melting point of 170 to 172 °C. As for `CCc1nc(-c2ccccc2)n(CC(C)(OC)OC)c(=O)c1C`, the figure is 80 to 83 °C; as for `CCCCNS(=O)(=O)C[C@@H](O)C(O)[C@@H](CC1CCCCC1)NC(=O)[C@H](CC(C)C)NC(=O)CCc1ccccc1` (relative stereo), 63 to 73 °C; as for `CC(C)(C)OC(=O)NC1COCCCC=CC2CC2(C(=O)NS(=O)(=O)C2CC2)NC(=O)C2CC(OC(=O)N3CCc4ccccc43)CN2C1=O` (centres undefined), 128 to 130 °C. With `O=Cc1ccc(-c2cccc(-c3ccnc4c(C(=O)c5cccs5)cnn34)c2)cc1` the figure was 156 to 158 °C; with `CC(C)(C)OC(=O)N[C@H](CO)C(=O)OC(c1ccccc1)c1ccccc1`, 116 to 117 °C; with `Oc1ccc2c(-c3ccccc3O)noc2c1`, 164 to 166 °C.

In turn, `CCCCCCCCc1ccc(-c2ccc(O)c(F)c2)nc1` registered a melting point of 73.5 to 74.6 °C. In the case of `CS(=O)(=O)c1ccc(Oc2ccc(Cc3ccccc3)cc2)cc1`, the melting point fell in the range of 109 to 110 °C. With `CCCCc1c(-c2ccccc2)nc(N)nc1-c1ccccc1` the figure was 154 to 155 °C; with `O=C(Cl)c1ccc(NC(=O)c2ccccc2-c2ccccc2)cc1`, 118 to 120 °C. In turn, `COC(=O)C1=C(C)NC(C)=C(S(=O)(=O)c2ccc(OC)cc2)C1c1ccccc1Cl` (centres undefined) displayed a melting point of 176 to 178 °C. On to `CN1CCN(c2nccc(Oc3ccc(NC(=O)c4cc(F)cc(N5CCCCC5)c4)c4ccccc34)n2)CC1`, for which the melting point fell in the range of 182 to 184 °C. With `COCC1COc2cc3ncnc(Nc4cccc(Cl)c4)c3cc2O1` (centres undefined) the figure was 277 to 282 °C. With `FC(F)(F)Oc1ccc(-c2cncc(Cl)n2)cc1` the figure was 58 to 60 °C; with `CN(C)CCCNc1ccc([N+](=O)[O-])cc1`, 60 to 61.5 °C; with `CCOC(=O)c1[nH]c(CC)nc1C(C)(C)O`, 181 to 184 °C.
